Data reported in patent publication US6875760B2 (Novo Nordisk A/S, priority 1999, dated 2005).

Molecular target: T1, human glucagon receptor (Homo sapiens, UniProt P47871)
T1 construct: expressed in transfected cells; host or cells: BHK (baby hamster kidney) cells
Assay: Glucagon Binding Assay (III)
Conditions: BHK cell membranes, WGA SPA beads, 125I-glucagon; read-out: Glu Bd Assay (III) IC50
Procedure, shortened: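 Non-specific binding was set with 500 nM glucagon in this SPA-type binding assay using WGA beads. The receptor source was a membrane preparation, kept on ice or at 4 °C, from BHK cells transfected with the human receptor. Scintillation counts were taken after 4 hours of shaking and 8–48 hours of settling.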

T1 sequence (P47871 26-477): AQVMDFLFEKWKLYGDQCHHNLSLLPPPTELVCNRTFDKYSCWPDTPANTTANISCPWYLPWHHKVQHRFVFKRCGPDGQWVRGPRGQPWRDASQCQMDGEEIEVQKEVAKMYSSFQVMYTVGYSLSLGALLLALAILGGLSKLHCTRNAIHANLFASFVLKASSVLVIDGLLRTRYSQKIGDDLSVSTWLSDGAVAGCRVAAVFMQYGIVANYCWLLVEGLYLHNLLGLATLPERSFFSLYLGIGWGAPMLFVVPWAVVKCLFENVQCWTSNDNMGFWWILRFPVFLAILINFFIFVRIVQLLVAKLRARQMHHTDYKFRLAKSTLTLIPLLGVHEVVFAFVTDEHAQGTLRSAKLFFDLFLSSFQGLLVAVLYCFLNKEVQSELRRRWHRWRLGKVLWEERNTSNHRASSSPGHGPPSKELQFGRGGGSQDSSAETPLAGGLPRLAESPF

SMILES	IC50 [nM]
CC(C)Cc1ccc(C(=O)N(Cc2ccc(C(=O)Nc3nn[nH]n3)cc2)C2CCC(C(C)(C)C)CC2)cc1 (stereo not shown) [Example 511, 4-{[(4-tert-Butylcyclohexyl)-(4-isobutylbenzoyl)amino]methyl}-N-(2H-tetrazol-5-yl)benzamide]	58
CC(C)(C)C1CCC(N(Cc2ccc(C(=O)Nc3nn[nH]n3)cc2)C(=O)c2ccc(Cc3ccccc3)cc2)CC1 (stereo not shown) [Example 512, 4-{[(4-tert-Butylcyclohexyl)-(4-benzylbenzoyl)amino]methyl}-N-(2H-tetrazol-5-yl)benzamide]	111
CC(C)Oc1ccc(C(=O)N(Cc2ccc(C(=O)Nc3nn[nH]n3)cc2)C2CCC(C(C)(C)C)CC2)cc1 (stereo not shown) [Example 513, 4-{[(4-tert-Butylcyclohexyl)-(4-isopropoxybenzoyl)amino]methyl}-N-(2H-tetrazol-5-yl)benzamide]	144
CC(C)(C)C1CCC(N(Cc2ccc(C(=O)Nc3nn[nH]n3)cc2)C(=O)c2cccc(C(F)(F)F)c2)CC1 (stereo not shown) [Example 514, 4-{[(4-tert-Butylcyclohexyl)-(3-trifluoromethylbenzoyl)amino]methyl}-N-(2H-tetrazol-5-yl)benzamide]	667
CC(C)(C)C1CCC(N(Cc2ccc(C(=O)Nc3nn[nH]n3)cc2)C(=O)c2cccc3ccccc23)CC1 (stereo not shown) [Example 515, 4-{[(4-tert-Butylcyclohexyl)-(naphth-1-ylcarbonyl)amino]methyl}-N-(2H-tetrazol-5-yl)benzamide]	450
CC(C)(C)C1CCC(N(Cc2ccc(C(=O)Nc3nn[nH]n3)cc2)C(=O)c2cccc3[nH]ccc23)CC1 (stereo not shown) [Example 516, 4-{[(4-tert-Butylcyclohexyl)-(1H-indol-4-ylcarbonyl)amino]methyl}-N-(2H-tetrazol-5-yl)benzamide]	2490
CC(C)(C)C1CCC(N(Cc2ccc(C(=O)Nc3nn[nH]n3)cc2)C(=O)Cc2ccc(S(C)(=O)=O)cc2)CC1 (stereo not shown) [Example 517, 4-({(4-tert-Butylcyclohexyl)-[2-(4-methylsulfonylphenyl)acetyl]amino}methyl)-N-(2H-tetrazol-5-yl)benzamide]	620
CC(C)Cc1ccc(C(=O)N(Cc2ccc(C(=O)Nc3nn[nH]n3)cc2)c2ccc(N3CCCCC3)cc2)cc1 [Example 518, 4-{[(4-Isobutylbenzoyl)-(4-piperidin-1-ylphenyl)amino]methyl}-N-(2H-tetrazol-5-yl)benzamide]	1470
O=C(Nc1nn[nH]n1)c1ccc(CN(C(=O)c2ccc(Cc3ccccc3)cc2)c2ccc(N3CCCCC3)cc2)cc1 [Example 519, 4-{[(4-Benzylbenzoyl)-(4-piperidin-1-ylphenyl)amino]methyl}-N-(2H-tetrazol-5-yl)benzamide]	908
CC(C)Cc1ccc(C(=O)N(Cc2ccc(C(=O)NCCC(=O)O)cc2)c2ccc(C3CCCCC3)cc2)cc1 [Example 520, 3-(4-{[(4-Cyclohexylphenyl)-(4-isobutylbenzoyl)amino]methyl}benzoylamino)propionic acid]	1980
O=C(O)CCNC(=O)c1ccc(CN(C(=O)c2ccc(Cc3ccccc3)cc2)c2ccc(C3CCCCC3)cc2)cc1 [Example 521, 3-(4-{[(4-Benzylbenzoyl)-(4-cyclohexylphenyl)amino]methyl}benzoylamino)propionic acid]	3420
O=C(O)CCNC(=O)c1ccc(CN(C(=O)c2ccc3c(c2)-c2ccccc2C3=O)c2ccc(C3CCCCC3)cc2)cc1 [Example 522, 3-(4-{[(4-Cyclohexylphenyl)-(9-oxo-9H-fluorene-3-carbonyl)amino]methyl}benzoylamino)propionic acid]	896
CC(C)Oc1ccc(C(=O)N(Cc2ccc(C(=O)NCCC(=O)O)cc2)c2ccc(C3CCCCC3)cc2)cc1 [Example 523, 3-(4-{[(4-Cyclohexylphenyl)-(4-isopropoxybenzoyl)amino]methyl}benzoylamino)propionic acid]	2110
O=C(O)CCNC(=O)c1ccc(CN(C(=O)c2cccc(C(F)(F)F)c2)c2ccc(C3CCCCC3)cc2)cc1 [Example 524, 3-(4-{[(4-Cyclohexylphenyl)-(3-trifluoromethylbenzoyl)amino]methyl}benzoylamino)propionic acid]	293
CC(C)(C)C1CCC(N(Cc2ccc(C(=O)NCCC(=O)O)cc2)C(=O)c2ccc(Cc3ccccc3)cc2)CC1 (stereo not shown) [Example 525, 3-(4-{[(4-Benzylbenzoyl)-(4-tert-butylcyclohexyl)amino]methyl}benzoylamino)propionic acid]	669
CC(C)Oc1ccc(C(=O)N(Cc2ccc(C(=O)NCCC(=O)O)cc2)C2CCC(C(C)(C)C)CC2)cc1 (stereo not shown) [Example 526, 3-(4-{[(4-tert-Butylcyclohexyl)-(4-isopropoxybenzoyl)amino]methyl}benzoylamino)propionic acid]	1700
CC(C)(C)C1CCC(N(Cc2ccc(C(=O)NCCC(=O)O)cc2)C(=O)c2cccc(C(F)(F)F)c2)CC1 (stereo not shown) [Example 527, 3-(4-{[(4-tert-Butylcyclohexyl)-(3-trifluormethylbenzoyl)amino]methyl}benzoylamino)propionic acid]	660

SMILES	IC50 [nM]
O=C(Nc1nn[nH]n1)c1ccc(CN(CC(c2ccccc2)c2ccccc2)C(=O)Cc2cccc(OC(F)(F)F)c2)cc1 [Example 529, 4-({(2,2-Diphenylethyl)-[2-(3-trifluoromethoxyphenyl)acetyl]amino}methyl)-N-(2H-tetrazol-5-yl)benzamide]	470
CC(Oc1ccc(OC(F)(F)F)cc1)C(=O)N(Cc1ccc(C(=O)Nc2nn[nH]n2)cc1)CC(c1ccccc1)c1ccccc1 (stereo not shown) [Example 530, 4-({(2,2-Diphenylethyl)-[2-(4-trifluoromethoxyphenoxy)propionyl]amino}methyl)-N-(2H-tetrazol-5-yl)benzamide]	3980
O=C(Nc1nn[nH]n1)c1ccc(CN(CC(c2ccccc2)c2ccccc2)C(=O)Cc2ccc(OC(F)(F)F)cc2)cc1 [Example 531]	627
O=C(Nc1nn[nH]n1)c1ccc(CN(C(=O)CSCc2ccccc2)c2ccc(C3CCCCC3)cc2)cc1 [Example 532, 4-{[(2-Benzylsulfanylacetyl)-(4-cyclohexylphenyl)amino]methyl}-N-(2H-tetrazol-5-yl)benzamide]	626
O=C(Nc1nn[nH]n1)c1ccc(CN(C(=O)CCOc2ccccc2)c2ccc(C3CCCCC3)cc2)cc1 [Example 533, 4-{[(4-Cyclohexylphenyl)-(3-phenoxypropionyl)amino]methyl}-N-(2H-tetrazol-5-yl)benzamide]	1800
O=C(Nc1nn[nH]n1)c1ccc(CN(C(=O)/C=C/c2cccc3ccccc23)c2ccc(C3CCCCC3)cc2)cc1 [Example 534, 4-{[(4-Cyclohexylphenyl)-(3-naphthalen-1-ylacryloyl)amino]methyl}-N-(2H-tetrazol-5-yl)benzamide]	282
O=C(Nc1nn[nH]n1)c1ccc(CN(C(=O)CCCc2ccccc2)c2ccc(C3CCCCC3)cc2)cc1 [Example 535, 4-{[(4-Cyclohexylphenyl)-(4-phenylbutyryl)amino]methyl}-N-(2H-tetrazol-5-yl)benzamide]	224
CC(C)(C)C1CCC(N(Cc2ccc(C(=O)Nc3nn[nH]n3)cc2)C(=O)CSCc2ccccc2)CC1 (stereo not shown) [Example 537, 4-{[(2-Benzylsulfanylacetyl)-(4-tert-butylcyclohexyl)amino]methyl}-N-(2H-tetrazol-5-yl)benzamide]	280
CC(C)(C)C1CCC(N(Cc2ccc(C(=O)Nc3nn[nH]n3)cc2)C(=O)C/C=C/c2ccccc2)CC1 (stereo not shown) [Example 538, 4-{[(4-tert-Butylcyclohexyl)-(4-phenylbut-3-enoyl)amino]methyl}-N-(2H-tetrazol-5-yl)benzamide]	180
CC(C)(C)C1CCC(N(Cc2ccc(C(=O)Nc3nn[nH]n3)cc2)C(=O)Cc2c(Cl)cccc2Cl)CC1 (stereo not shown) [Example 539, 4-({(4-tert-Butylcyclohexyl)-[2-(2,6-dichlorophenyl)acetyl]amino}methyl)-N-(2H-tetrazol-5-yl)benzamide]	386
CC(C)(C)C1CCC(N(Cc2ccc(C(=O)Nc3nn[nH]n3)cc2)C(=O)CCC(=O)c2ccc(Cl)cc2)CC1 (stereo not shown) [Example 540, 4-({(4-tert-Butylcyclohexyl)-[4-(4-chlorophenyl)-4-oxobutyryl]amino}methyl)-N-(2H-tetrazol-5-yl)benzamide]	540
CC(C)(C)C1CCC(N(Cc2ccc(C(=O)Nc3nn[nH]n3)cc2)C(=O)CCC(=O)c2ccccc2)CC1 (stereo not shown) [Example 541, 4-({(4-tert-Butylcyclohexyl)-(4-oxo-4-phenylbutyryl)amino]methyl}-N-(2H-tetrazol-5-yl)benzamide]	805
CC(Oc1ccc(Cl)cc1)C(=O)N(Cc1ccc(C(=O)Nc2nn[nH]n2)cc1)C1CCC(C(C)(C)C)CC1 (stereo not shown) [Example 542, 4-({(4-tert-Butylcyclohexyl)-[2-(4-chlorophenoxy)propionyl]amino}methyl)-N-(2H-tetrazol-5-yl)benzamide]	304
CC(C)(C)C1CCC(N(Cc2ccc(C(=O)Nc3nn[nH]n3)cc2)C(=O)Cc2cccc(OC(F)(F)F)c2)CC1 (stereo not shown) [Example 543, 4-({(4-tert-Butylcyclohexyl)-[2-(3-trifluoromethoxyphenyl)acetyl]amino}methyl)-N-(2H-tetrazol-5-yl)benzamide]	201
CC(C)(C)C1CCC(N(Cc2ccc(C(=O)Nc3nn[nH]n3)cc2)C(=O)/C=C/c2cccc3ccccc23)CC1 (stereo not shown) [Example 544]	552
CC(C)(C)C1CCC(N(Cc2ccc(C(=O)Nc3nn[nH]n3)cc2)C(=O)CCCc2ccccc2)CC1 (stereo not shown) [Example 545, 4-([(4-tert-Butylcyclohexyl)-(4-phenylbutyryl)amino]methyl}-N-(2H-tetrazol-5-yl)benzamide]	47
CC(C)(C)C1CCC(N(Cc2ccc(C(=O)Nc3nn[nH]n3)cc2)C(=O)C2=CCc3ccccc32)CC1 (stereo not shown) [Example 546, 4-([(4-tert-Butylcyclohexyl)-(3H-indene-1-carbonyl)amino]methyl}-N-(2H-tetrazol-5-yl)benzamide]	1740
